Results taken from patent publication US20070219243A1, “Method for improving the pharmacokinetics of HIV integrase inhibitors” (priority 2005, published 2007).
Read-outs that look alike come from different tables or passages of the source.

Assay: Example 1: pharmacokinetics of Compound 1 alone and with RTV in healthy subjects
Format: in vivo, human
Conditions: for Ctau / Cmax / half-life / AUC: Compound 1 in plasma; for AUC: N = 12, read-out: AUC (AUCtau)
From the text: The study was an open-label, fixed-sequence, crossover, pharmacokinetic study with 12 subjects. The subjects were healthy males and non-pregnant, nonlactating females between 18 and 45 years of age, inclusive. The duration of the study was 20 days, with Period 1 of Days 1 to 10 and Period 2 of days 11 to 20. Follow-up contact was on day 27.

[1] = both sexes, human, plasma, oral, 100 mg, Day 10, Compound 1 100 mg twice daily alone, mean (% CV)
[2] = both sexes, human, plasma, oral, Day 11, Compound 1 100 mg twice daily + single dose RTV 100 mg, mean
[3] = both sexes, human, plasma, oral, Day 20, Compound 1 100 mg + RTV 100 mg twice daily, mean

Q: With `COc1cc2c(cc1Cc1cccc(Cl)c1F)c(=O)c(C(=O)O)cn2[C@H](CO)C(C)C` [Compound 1, 6-(3-chloro-2-fluorobenzyl)-1-[(2S)-1-hydroxy-3-methylbutan-2-yl]-7-methoxy-4-oxo-1,4-dihydroquinoline-3-carboxylic acid] as the molecule, how does the “mean steady-state exposure (AUCtau, Day 10) lower compared with mean exposure (AUCinf) after a single dose (Day 1)” value (Compound 1 100 mg alone, indicating autoinduction of metabolism) read?
A: approximately 20%

Q: And the Ctau (end of dosing interval, Day 1, Compound 1 100 mg alone, mean (% CV))?
A: 19.2 (52.5) ng/mL

Q: What about the Ctau (Day 10, Compound 1 100 mg twice daily alone, mean (% CV)) of the same molecule?
A: 12.4 (63.7) ng/mL

Q: And the Ctau (Day 11, Compound 1 100 mg twice daily + single dose RTV 100 mg, mean)?
A: 543.3 ng/mL

Q: And the Ctau (Day 20, Compound 1 100 mg + RTV 100 mg twice daily, mean)?
A: 1035.6 ng/mL

Q: What about the Cmax (both sexes, human, plasma, oral, 100 mg, Day 1, single dose Compound 1 100 mg alone, mean (% CV)) of the same molecule?
A: 200 ng/mL

Q: What about the half-life (both sexes, human, plasma, oral, 100 mg, Day 1, single dose Compound 1 100 mg alone, median (min, max)) of the same molecule?
A: 3.1 h

Q: What about the half-life (both sexes, human, plasma, oral, 100 mg, Day 10, Compound 1 100 mg twice daily alone, steady state, median (min, max)) of the same molecule?
A: 3.5 h

Q: What about the Cmax [1] of the same molecule?
A: 164 ng/mL

Q: And the AUC [1]?
A: 719 ng·h/mL

Q: And the AUC(0-inf) (both sexes, human, plasma, oral, 100 mg, read-out: AUC (AUCinf))?
A: 908 ng·h/mL

Q: What about the Cmax [2] of the same molecule?
A: 795 ng/mL

Q: What about the AUC [2] of the same molecule?
A: 6170 ng·h/mL

Q: And the half-life (both sexes, human, plasma, oral, Day 11, Compound 1 100 mg twice daily + single dose RTV 100 mg, median)?
A: 18.2 h

Q: And the half-life (both sexes, human, plasma, oral, Day 20, Compound 1 100 mg + RTV 100 mg twice daily, steady state, median)?
A: 9.5 h

Q: And the Cmax [3]?
A: 1830 ng/mL

Q: What about the AUC [3] of the same molecule?
A: 14300 ng·h/mL
